One data set deals with M^pro. Particulars: cited from earlier work.
The nature of a further data set: in vitro. Particulars: human, Caco-2, Caco-2 permeability Papp A to B. A general note: Caco-2 monolayers are a common model of the intestinal barrier.

Some results are limits rather than exact numbers.

Broadly, the IC50 is the concentration needed to halve the response being measured. By Papp A→B is commonly meant how fast a substance crosses the layer from the apical side. A high value points to ready permeation.

In the case of `C[C@H](NC(=O)[C@@H](c1cccnc1)N(C(=O)C(Cl)Cl)c1ccc(-c2ccccc2)cc1)c1ccccc1` [Jun9-62-2R], in the data set with M^pro, the IC50 was 430 nM. In turn, `Cn1cnc(Cn2c(=O)[nH]/c(=N\c3cc4cn(C)nc4cc3Cl)n(Cc3cc(F)c(F)cc3F)c2=O)n1` [Ensitrelvir] came in with a Papp A→B in the data set “in vitro” of 0.42 ×10⁻⁶ cm/s.

Molecule `CC(C)(C)[C@H](NC(=O)C(F)(F)F)C(=O)N1C[C@H]2[C@@H]([C@H]1C(=O)N[C@H](C#N)C[C@@H]1CCNC1=O)C2(C)C` [Nirmatrelvir] yielded a Papp A→B in the data set “in vitro” below 0.1 ×10⁻⁶ cm/s.

Source of the values: PMC12081877 (Nature Communications, 2025).
